Paper PMC9794833, “Ligand recognition and activation of neuromedin U receptor 2” (Nature Communications, 2022)
Values joined by “and” are separate entries in the source; they are usually repeats but may differ in a detail not shown here. Identical values can stand only once. Like-named read-outs stand apart in the source and are kept apart here. Where no end group is shown, it is not given here.

Columns and labels:
Format in all cases: cell-based
NMU2 W281A = molecular target: T1, NMU2 W281A (Homo sapiens, UniProt Q9GZQ4, W281A); experiment: TRUPATH assay, NMU2 mutant W281A
T1 construct: HA signal peptide (N); expressed in transfected cells; host or cells: HEK 293F
T1 sequence (Q9GZQ4 whole entry W281A): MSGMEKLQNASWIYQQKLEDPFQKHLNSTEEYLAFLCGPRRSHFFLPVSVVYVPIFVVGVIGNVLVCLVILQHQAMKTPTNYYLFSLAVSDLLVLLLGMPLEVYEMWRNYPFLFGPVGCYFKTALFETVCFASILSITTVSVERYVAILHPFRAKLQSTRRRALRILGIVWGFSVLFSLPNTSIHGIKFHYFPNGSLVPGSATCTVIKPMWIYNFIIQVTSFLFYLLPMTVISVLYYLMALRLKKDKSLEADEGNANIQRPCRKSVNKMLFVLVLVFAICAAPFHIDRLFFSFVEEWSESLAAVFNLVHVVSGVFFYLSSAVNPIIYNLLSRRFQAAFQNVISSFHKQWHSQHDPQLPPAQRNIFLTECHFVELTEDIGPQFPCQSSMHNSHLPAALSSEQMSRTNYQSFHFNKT
Experimental: (§1) The plasmids of Gαi1, Gβ3, and Gγ9 used for the TRUPATH assay were purchased from Addgene (TRUPATH Kit, #1000000163). NMU2 constructs of WT and mutants were constructed into a PTT5 vector (Invitrogen) with an N-terminal HA signal peptide followed by a Flag tag. HEK 293F cells were transiently transfected with WT or mutants of NMU2, Gαi1, Gβ3, and Gγ9 at an […] ratio of 4:1:1:1 with a total of 3500 ng plasmid DNA using a transfection reagent (PEI MAX 2000, Polysciences) and cultivated at 37 °C with 5 % CO2. Cells were collected after 48-h transfection. The expression level of the receptor was measured by incubating 10 μl cells with 15 μl TBS buffer supplemented with 4% bovine serum albumin, 20% (v/v) viability staining solution7-AAD (Invitrogen, Cat#00-6993-50), and ANTI-FLAG M2-FITC antibody (Sigma, F4049; 1:100 diluted by TBS) at 4 °C for 20 min. After incubation, 175 μl TBS buffer was added, and the fluorescence signal on the cell surface was detected by an FCM (flow cytometry) reader (Millipore). The cells were diluted with 1× HBSS (Hank’s balanced salt solution) balanced buffer supplemented with 25 mM HEPES, pH 7.4, and seeded onto the 96-well opaque cell culture plates (Beyotime) at a density of 18,000 cells per well by 60 μl. Freshly prepared 50 μM coelenterazine 400a (Nanolight Technologies) was added into the well by 10 μl. After a 5 min equilibration time in the darkness, plates were then read in a Synerg^TM H1 microplate reader (BioTek) with excitation at 395 nm and emission at 410 and 515 nm by serially three times. Then, 30 μl of 3.3× agonists were added into the wells with a gradient final concentration from 10^−4–10^−13 M. Plates were read immediately again by serially five times. Data were processed and analyzed following the method in the literature by using GraphPad Prism 8.0.

NMU2 F177C = molecular target: T2, NMU2 F177C (Homo sapiens, UniProt Q9GZQ4, F177C); experiment: IP accumulation assay, NMU2 mutant F177C; conditions: IP accumulation
T2 construct: HA signal peptide (N); expressed in transfected cells; host or cells: HEK 293F, transient transfection, PTT5 vector
T2 sequence (Q9GZQ4 whole entry F177C): as the sequence (Q9GZQ4 whole entry W281A) above, with F177C, A281W counted along it
Experimental: (§2) NMU2 constructs of WT and mutants were constructed into PTT5 vector (Invitrogen), as mentioned above. HEK 293F cells were transiently transfected with WT or mutants with total of 2000 ng plasmid DNA using transfection reagent (PEI MAX 2000, Polysciences) and cultivated at 37 °C with 5% CO2. Cells were collected after 48-h transfection. IP accumulation was tested by IP-One Gq assay kit (Cisbio Bioassays, 62IPAPEJ) following the instruction manual. In general, cells were resuspended with 1× HBSS buffer containing 20 mM LiCl (stimulation buffer) and seeded into the white 384-well microplates (Proxi Plate^TM-384 Plus, PerkinElmer) with a density of 20,000 per well. Cells were preincubated with 10^−5 M R-PSOP (provided by Boehringer Ingelheim company, Germany) and gradient concentration from 10^−4 to 10^−11 M of NMU-25 or gradient concentration 10^−4 to 10^−11 M of NMU-25 alone in stimulation buffer at 37 °C for 90 min. The cryptate-labeled anti-IP1 monoclonal antibody and d2-labeled IP1 were diluted with lysis & detection buffer (1:20) and added to each well by 3 μl, respectively. The plates were incubated at room temperature for 60 minutes and then read in a Synerg^TM H1 microplate reader (BioTek) with excitation at 330 nm and emission at 620 and 665 nm. The IP1 production was calculated by a standard dose–response curve and analyzed by GraphPad Prism 8.0.

NMU2 F224A = molecular target: T3, NMU2 F224A (Homo sapiens, UniProt Q9GZQ4, F224A); experiment: IP accumulation assay, NMU2 mutant F224A; conditions: IP accumulation
T3 construct: HA signal peptide (N); expressed in transfected cells; host or cells: HEK 293F, transient transfection, PTT5 vector
T3 sequence (Q9GZQ4 whole entry F224A): as the sequence (Q9GZQ4 whole entry W281A) above, with F224A, A281W counted along it
Experimental: as §2

NMU2 F284A = molecular target: T4, NMU2 F284A (Homo sapiens, UniProt Q9GZQ4, F284A); experiment: TRUPATH assay, NMU2 mutant F284A
T4 construct: HA signal peptide (N); expressed in transfected cells; host or cells: HEK 293F
T4 sequence (Q9GZQ4 whole entry F284A): as the sequence (Q9GZQ4 whole entry W281A) above, with A281W, F284A counted along it
Experimental: as §1

NMU2 = molecular target: T5, NMU2 (Homo sapiens, UniProt Q9GZQ4); experiment: TRUPATH Gαi1βγ biosensor assay, WT NMU2; conditions: for NmU-25–induced G protein activation of NMU2: single replicates, in % (unit assumed)
T5 construct: HA signal peptide (N); expressed in transfected cells; host or cells: HEK 293F
T5 sequence (Q9GZQ4 whole entry): as the sequence (Q9GZQ4 whole entry W281A) above, with A281W counted along it
Experimental: as §1

NMU2 F316A = molecular target: T6, NMU2 F316A (Homo sapiens, UniProt Q9GZQ4, F316A); experiment: TRUPATH assay, NMU2 mutant F316A
T6 construct: HA signal peptide (N); expressed in transfected cells; host or cells: HEK 293F
T6 sequence (Q9GZQ4 whole entry F316A): as the sequence (Q9GZQ4 whole entry W281A) above, with A281W, F316A counted along it
Experimental: as §1

NMU2 E105A = molecular target: T7, NMU2 E105A (Homo sapiens, UniProt Q9GZQ4, E105A); experiment: TRUPATH assay, NMU2 mutant E105A
T7 construct: HA signal peptide (N); expressed in transfected cells; host or cells: HEK 293F
T7 sequence (Q9GZQ4 whole entry E105A): as the sequence (Q9GZQ4 whole entry W281A) above, with E105A, A281W counted along it
Experimental: as §1

NMU2 N306Q = molecular target: T8, NMU2 N306Q (Homo sapiens, UniProt Q9GZQ4, N306Q); experiment: TRUPATH assay, NMU2 mutant N306Q
T8 construct: HA signal peptide (N); expressed in transfected cells; host or cells: HEK 293F
T8 sequence (Q9GZQ4 whole entry N306Q): as the sequence (Q9GZQ4 whole entry W281A) above, with A281W, N306Q counted along it
Experimental: as §1

NMU2 E102A [1] = molecular target: T9, NMU2 E102A (Homo sapiens, UniProt Q9GZQ4, E102A); experiment: TRUPATH assay, NMU2 mutant E102A
T9 construct: HA signal peptide (N); expressed in transfected cells; host or cells: HEK 293F
T9 sequence (Q9GZQ4 whole entry E102A): as the sequence (Q9GZQ4 whole entry W281A) above, with E102A, A281W counted along it
Experimental: as §1, with “The cells were diluted with 1× HBSS (Hank’s balanced salt solution) balanced buffer supplemented with 25 mM HEPES, pH 7.4, and seeded onto the 96-well opaque cell culture plates (Beyotime) at a density of 18,000 cells per well by 60 μl. Freshly prepared 50 μM coelenterazine 400a (Nanolight Technologies) was added into the well by 10 μl.” left out, “Data were processed and analyzed following the method in the literature by using GraphPad Prism 8.0.” left out

NMU2 E102A [2] = molecular target: T9, NMU2 E102A; experiment: IP accumulation assay, NMU2 mutant E102A; conditions: IP accumulation
Experimental: as §2

[3] = read-out: pEC50 mean±SEM (converted)
[4] = read-out: pEC50±SEM, NmU-25 alone (converted)

## FRVDEEFQSPFASQSRGYFLFRPRN-NH2 [NmU-25]
NMU2 W281A
  EC50 ratio EC50(mutant)/EC50(WT): 24
  Span (window between Emax and minimal agonist response): 55±9 % of WT
NMU2 W281A; Log [agonist] M -4
  G protein activation (TRUPATH), dose-response point: 31.1201 and 49.629
NMU2 W281A; individual experiments
  ΔpEC50 (from WT): -1.673 and -1.545 and -1.465
NMU2 W281A; read-out: EC50
  EC50: 814 nM
NMU2 W281A; [3]
  EC50: 813 nM
NMU2 F177C; read-out: EC50, NmU-25 alone
  EC50: 7 nM
NMU2 F177C; [4]
  EC50: 7.08 nM
NMU2 F224A; read-out: EC50, NmU-25 alone
  EC50: 46 nM
NMU2 F224A; [4]
  EC50: 45.7 nM
NMU2 F284A; Log [NmU-25] M -4, single replicates
  NmU-25–induced G protein activation of NMU2: 51.7867 and 36.0609 and 47.0977
NMU2 F284A; Log [NmU-25] M -5, single replicates
  NmU-25–induced G protein activation of NMU2: 36.8137 and 51.0666 and -1.433 and 5.137 and 15.0834
NMU2 F284A; Log [NmU-25] M -6, single replicates
  NmU-25–induced G protein activation of NMU2: -9.689 and 18.4963 and 20.7431 and 10.1867 and 6.446
NMU2 F284A; Log [NmU-25] M -7, single replicates
  NmU-25–induced G protein activation of NMU2: 16.596 and 4.555 and 25.4325 and 3.668 and -4.14
NMU2 F284A; Log [NmU-25] M -8, single replicates
  NmU-25–induced G protein activation of NMU2: 37.8124 and 33.3355 and -35.58 and 1.433 and 3.8556
NMU2 F284A; Log [NmU-25] M -9, single replicates
  NmU-25–induced G protein activation of NMU2: 18.5281 and 39.1515 and -3.291 and -33.2453 and 1.059
NMU2 F284A; Log [NmU-25] M -10, single replicates
  NmU-25–induced G protein activation of NMU2: -33.6452 and 11.984 and -41.6359 and -19.8948 and -2.9799
NMU2 F284A; Log [NmU-25] M -11, single replicates
  NmU-25–induced G protein activation of NMU2: -12.488 and 31.0606 and -18.1089 and -17.8891 and -12.403
NMU2 F284A; Log [agonist] M -4
  G protein activation (TRUPATH), dose-response point: 51.7867 and 36.0609 and 47.0977
NMU2; TRUPATH, peer review file
  potency on Gi1, Gq and G11 signaling pathways (in words): highest potency by coupling Gi1
NMU2; WT
  EC50 ratio EC50(mutant)/EC50(WT): 1
  Span (window between Emax and minimal agonist response): 100±5 % of WT
NMU2; WT, Log [NmU-25] M -4
  NmU-25–induced G protein activation of NMU2: 96.1513 and 120.034 and 131.645 and 132.135 and 112.945 and 100.303 and 111.674 and 103.511
NMU2; WT, Log [NmU-25] M -5
  NmU-25–induced G protein activation of NMU2: 94.5176 and 100.381 and 95.0326
NMU2; WT, Log [NmU-25] M -8
  NmU-25–induced G protein activation of NMU2: 14.7563 and 14.6245 and 25.1777 and 27.4903 and 32.4994 and 60.5946 and 16.3263 and -20.6053 and 85.0469 and -9.5497 and 77.5389 and 54.5579 and 12.0114
NMU2; WT, Log [NmU-25] M -9
  NmU-25–induced G protein activation of NMU2: 14.8034 and 2.989 and 12.9021 and 10.3696 and 7.38 and -3.464 and 27.6247 and 0.6791 and -7.166 and 14.4877 and 22.3774 and 22.0623 and -4.444
NMU2; WT, Log [NmU-25] M -10
  NmU-25–induced G protein activation of NMU2: -1.975 and -9.668 and -7.55 and 11.1071 and -8.093 and -25.3752 and 0.6481 and -23.592 and -13.8096 and 16.7093 and 3.342 and 8.321 and 30.8279
NMU2; WT, Log [NmU-25] M -11
  NmU-25–induced G protein activation of NMU2: -12.488 and 4.703 and -8.667 and -24.4881 and 6.542 and 34.4845 and -19.0587 and 46.905 and 31.0606 and -18.1089 and -17.8891 and -27.6836
NMU2; WT, agonist-induced G protein activation, HEK 293F, read-out: EC50
  EC50: 34 nM
NMU2; WT, earlier manuscript version quoted in peer review file, read-out: EC50
  EC50: 37 nM
NMU2; WT, read-out: pEC50 mean±SEM (converted)
  EC50: 34.7 nM
NMU2 F316A
  EC50 ratio EC50(mutant)/EC50(WT): 39
NMU2 F316A; Log [agonist] M -4
  G protein activation (TRUPATH), dose-response point: 89.6236 and 94.3509 and 81.0469 and 109.176
NMU2 F316A; Log [agonist] M -5
  G protein activation (TRUPATH), dose-response point: 58.7715 and 110.343 and 86.8329 and 108.262
NMU2 F316A; individual experiments
  ΔpEC50 (from WT): -1.816 and -2.03 and -0.9173 and -1.079
NMU2 F316A; read-out: EC50
  EC50: 1340 nM
NMU2 F316A; [3]
  EC50: 1350 nM
NMU2 E105A; E105A
  Span (window between Emax and minimal agonist response): 65±13 % of WT
NMU2 E105A; E105A vs WT, TRUPATH, read-out: decrease of Emax
  Emax: 50%
NMU2 E105A; E105A, Log [agonist] M -5
  G protein activation (TRUPATH), dose-response point: 55.6494 and 84.0025 and 53.5618 and 51.5031
NMU2 E105A; E105A, earlier manuscript version quoted in peer review file, read-out: EC50
  EC50: 1850 nM
NMU2 E105A; E105A, earlier manuscript version, peer review file
  reduction of agonist potency: about 50 fold
NMU2 E105A; E105A, individual experiments
  ΔpEC50 (from WT): -1.22 and -1.57 and -1.279 and -1.924
NMU2 E105A; E105A, read-out: EC50
  EC50: 2480 nM
NMU2 E105A; E105A, read-out: pEC50 mean±SEM (converted)
  EC50: 2510 nM
NMU2 N306Q
  EC50 ratio EC50(mutant)/EC50(WT): 14
  Span (window between Emax and minimal agonist response): 101±10 % of WT
NMU2 N306Q; Log [agonist] M -4
  G protein activation (TRUPATH), dose-response point: 89.9582 and 52.9953 and 88.5352
NMU2 N306Q; Log [agonist] M -5
  G protein activation (TRUPATH), dose-response point: 95.8006 and 91.3095 and 87.6434
NMU2 N306Q; individual experiments
  ΔpEC50 (from WT): -1.093 and -0.9304 and -1.223
NMU2 N306Q; read-out: EC50
  EC50: 466 nM
NMU2 N306Q; [3]
  EC50: 468 nM
NMU2 E102A [1]
  potency (in words): complete loss of potency
NMU2 E102A [2]; read-out: EC50, NmU-25 alone
  EC50: 1700 nM
NMU2 E102A [2]; [4]
  EC50: 1700 nM
